Calls of active or inactive are those of the source. The rule behind the calls is not given here.
What was measured:
Tyrosinase = target: T1, Tyrosinase (Agaricus bisporus, UniProt O42713); test: Inhibition of mushroom tyrosinase
T1 sequence (O42713 whole entry): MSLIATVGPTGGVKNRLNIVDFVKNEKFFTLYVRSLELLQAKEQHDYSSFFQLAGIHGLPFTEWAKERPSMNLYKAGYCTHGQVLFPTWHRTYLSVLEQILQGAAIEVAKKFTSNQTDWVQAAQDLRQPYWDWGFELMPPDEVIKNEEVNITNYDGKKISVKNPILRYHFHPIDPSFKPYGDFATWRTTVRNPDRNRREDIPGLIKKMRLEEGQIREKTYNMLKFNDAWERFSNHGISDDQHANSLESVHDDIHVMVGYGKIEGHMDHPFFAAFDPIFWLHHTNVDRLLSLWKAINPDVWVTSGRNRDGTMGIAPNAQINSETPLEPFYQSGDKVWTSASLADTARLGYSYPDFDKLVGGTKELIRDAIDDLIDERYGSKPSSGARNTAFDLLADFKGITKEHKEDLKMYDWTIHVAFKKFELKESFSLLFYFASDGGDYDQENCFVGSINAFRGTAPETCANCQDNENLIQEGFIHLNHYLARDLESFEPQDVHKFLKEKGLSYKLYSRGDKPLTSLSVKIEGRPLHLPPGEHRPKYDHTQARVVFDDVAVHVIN

[1] = target: T2, Tyrosinase (Agaricus bisporus) (UniProt O42713); test: Inhibition of mushroom tyrosinase at 200 uM
T2 sequence (whole entry): T1 sequence (O42713 whole entry)

[2] = target: T2, Tyrosinase (Agaricus bisporus); test: Competitive-uncompetitive mixed-2 type inhibition of mushroom tyrosinase assessed as L-DOPA oxidation at 0.05 to 0.10 uM by Lineweaver-Burke double reciprocal plot
[3] = target: T2, Tyrosinase (Agaricus bisporus); test: Reversible inhibition of mushroom tyrosinase assessed as L-DOPA oxidation at 1.2 to 2.4 uM
[4] = target: T2, Tyrosinase (Agaricus bisporus); settings: 1.06 to 0.12 uM
Description: Competitive inhibition of mushroom tyrosinase assessed as L-DOPA oxidation at 1.06 to 0.12 uM by Lineweaver-Burke double reciprocal plot

Row | SMILES | IC50 (Tyrosinase) [µM] | inhibition [1] | other results
1 | NC(=S)N/N=C\c1ccc(O[C@@H]2O[C@H](COC(=O)c3ccccc3)[C@@H](OC(=O)c3ccccc3)[C@@H](OC(=O)c3ccccc3)[C@H]2OC(=O)c2ccccc2)cc1 | 52.8 |  | 
2 | O=Cc1ccc(O[C@@H]2O[C@H](COC(=O)c3ccccc3)[C@@H](OC(=O)c3ccccc3)[C@@H](OC(=O)c3ccccc3)[C@H]2OC(=O)c2ccccc2)cc1 |  | inactive | 
3 | O=Cc1ccc(O[C@@H]2O[C@H](CO)[C@@H](O)[C@H](O)[C@H]2O)cc1 |  | inactive | 
4 | O=C(O[C@@H]1[C@@H](OC(=O)c2ccccc2)[C@H](Oc2ccc(/C=N\O)cc2)OC[C@H]1OC(=O)c1ccccc1)c1ccccc1 | > 200 | inactive | 
5 | NC(=S)N/N=C\c1ccc(O[C@@H]2OC[C@@H](OC(=O)c3ccccc3)[C@H](OC(=O)c3ccccc3)[C@H]2OC(=O)c2ccccc2)cc1 | 36.5 |  | 
6 | O=Cc1ccc(O[C@@H]2O[C@H](CO)[C@@H](O)[C@@H](O)[C@H]2O)cc1 |  | inactive | 
7 | CCO/N=C\c1ccc(O)c(O)c1 | 0.3 |  | 
8 | CO/N=C\c1ccc(O[C@@H]2O[C@H](CO)[C@@H](O)[C@@H](O)[C@H]2O)cc1 | > 200 | inactive | 
9 | CO/N=C\c1ccc(O[C@@H]2O[C@H](COC(C)=O)[C@H](OC(C)=O)[C@H](OC(C)=O)[C@H]2OC(C)=O)cc1 | > 200 | inactive | 
10 | CO/N=C\c1ccc(O[C@@H]2O[C@H](COC(C)=O)[C@@H](OC(C)=O)[C@H](OC(C)=O)[C@H]2OC(C)=O)cc1 | > 200 | inactive | 
11 | CO/N=C\c1ccc(O[C@@H]2O[C@H](CO)[C@@H](O)[C@H](O)[C@H]2O)cc1 | > 200 | inactive | 
12 | NC(=S)N/N=C\c1ccc(O[C@@H]2O[C@H](CO)[C@@H](O)[C@H](O)[C@H]2O)cc1 | 2.96 |  | 
13 | O=Cc1ccc(O[C@@H]2OC[C@@H](OC(=O)c3ccccc3)[C@H](OC(=O)c3ccccc3)[C@H]2OC(=O)c2ccccc2)cc1 |  | inactive | 
14 | CO/N=C\c1ccc(O[C@@H]2O[C@H](COC(C)=O)[C@@H](OC(C)=O)[C@@H](OC(C)=O)[C@H]2OC(C)=O)cc1 | > 200 | inactive | 
15 | CO/N=C\c1ccc(O[C@@H]2O[C@H](COC(=O)c3ccccc3)[C@@H](OC(=O)c3ccccc3)[C@@H](OC(=O)c3ccccc3)[C@H]2OC(=O)c2ccccc2)cc1 | > 200 | inactive | 
16 | CO/N=C\c1ccc(O[C@@H]2OC[C@@H](OC(=O)c3ccccc3)[C@H](OC(=O)c3ccccc3)[C@H]2OC(=O)c2ccccc2)cc1 | > 200 | inactive | 
17 | NC(=S)N/N=C\c1ccc(O[C@@H]2O[C@H](CO)[C@@H](O)[C@@H](O)[C@H]2O)cc1 | 3.61 |  | 

More lines, main results first:

Row | IC50 (Tyrosinase) [µM] | inhibition [1] | SMILES | other results
18 | > 200 | inactive | CC(=O)OC[C@H]1O[C@@H](Oc2ccc(/C=N\O)cc2)[C@H](OC(C)=O)[C@@H](OC(C)=O)[C@H]1OC(C)=O | 
19 | 0.41 |  | CC(=O)OC[C@H]1O[C@@H](Oc2ccc(/C=N\NC(N)=S)cc2)[C@H](OC(C)=O)[C@@H](OC(C)=O)[C@H]1OC(C)=O | 
20 | > 200 | inactive | OC[C@H]1O[C@@H](Oc2ccc(/C=N\O)cc2)[C@H](O)[C@@H](O)[C@@H]1O | 
21 | > 200 | inactive | CC(=O)OC[C@H]1O[C@@H](Oc2ccc(/C=N\O)cc2)[C@H](OC(C)=O)[C@H](OC(C)=O)[C@@H]1OC(C)=O | 
22 | > 200 | inactive | CC(=O)OC[C@H]1O[C@@H](O[C@H]2[C@H](OC(C)=O)[C@@H](OC(C)=O)[C@H](Oc3ccc(/C=N\O)cc3)O[C@@H]2COC(C)=O)[C@H](OC(C)=O)[C@@H](OC(C)=O)[C@H]1OC(C)=O | 
23 | > 200 | inactive | CO/N=C\c1ccc(O[C@@H]2O[C@H](COC(C)=O)[C@@H](O[C@@H]3O[C@H](COC(C)=O)[C@H](OC(C)=O)[C@H](OC(C)=O)[C@H]3OC(C)=O)[C@H](OC(C)=O)[C@H]2OC(C)=O)cc1 | 
24 | > 200 | inactive | CC(=O)OC[C@H]1O[C@@H](Oc2ccc(/C=N\O)cc2)[C@H](OC(C)=O)[C@@H](OC(C)=O)[C@@H]1OC(C)=O | 
25 | > 200 | inactive | O=C(OC[C@H]1O[C@@H](Oc2ccc(/C=N\O)cc2)[C@H](OC(=O)c2ccccc2)[C@H](OC(=O)c2ccccc2)[C@@H]1OC(=O)c1ccccc1)c1ccccc1 | 
26 |  | inactive | CC(=O)OC[C@H]1O[C@@H](Oc2ccc(C=O)cc2)[C@H](OC(C)=O)[C@@H](OC(C)=O)[C@@H]1OC(C)=O | 
27 |  | inactive | CC(=O)OC[C@H]1O[C@@H](Oc2ccc(C=O)cc2)[C@H](OC(C)=O)[C@H](OC(C)=O)[C@@H]1OC(C)=O | 
28 | 3.41 |  | CC(=O)OC[C@H]1O[C@@H](Oc2ccc(/C=N\NC(N)=S)cc2)[C@H](OC(C)=O)[C@H](OC(C)=O)[C@@H]1OC(C)=O | 
29 | 0.65 |  | CC(=O)OC[C@H]1O[C@@H](O[C@H]2[C@H](OC(C)=O)[C@@H](OC(C)=O)[C@H](Oc3ccc(/C=N\NC(N)=S)cc3)O[C@@H]2COC(C)=O)[C@H](OC(C)=O)[C@@H](OC(C)=O)[C@H]1OC(C)=O | inhibition [2]: Active; inhibition [3]: Active
30 | > 200 | inactive | OC[C@H]1O[C@@H](Oc2ccc(/C=N\O)cc2)[C@H](O)[C@H](O)[C@@H]1O | 
31 | 0.31 |  | CC(=O)OC[C@H]1O[C@@H](Oc2ccc(/C=N\NC(N)=S)cc2)[C@H](OC(C)=O)[C@@H](OC(C)=O)[C@@H]1OC(C)=O | inhibition [4]: Active; inhibition [3]: Active
32 |  | inactive | CC(=O)OC[C@H]1O[C@@H](Oc2ccc(C=O)cc2)[C@H](OC(C)=O)[C@@H](OC(C)=O)[C@H]1OC(C)=O | 
